Molecules are shown by their SMILES.

One data set has as its system Herpes Labialis. The following applies: 1% concentration; application after the prodromal phase; cited from earlier work.
The test system of another data set is HSV-1. In words: Anti-viral activity of CTC-96 extracted from Dermal Ointment Formulation. Format: cell-based. The conditions noted are these: extract diluted to 2.5 μg/ml. From the text: FIG. 1 is a graphical representation showing the anti-viral activity of CTC-96 extracted from the dermal formulation.
CTC-96 was mixed to homogeneity with a Dermal Ointment Formulation (petrolatum 10% by weight, camphor 0.92% by weight, menthol 0.5% by weight, methyl salicylate 0.26% by weight, eucalyptus oil 0.30% by weight).

A short description of data set [1]: Percutaneous absorption of CTC-96 from Dermal ointment Formulation, finite dose technique, Franz Diffusion Cells. Format: in vitro ADME, human. The following applies: 48 hours; for Mass in Dermis / Mass in Receptor Solution / Percent of Applied Dose in Dermis / Percent of Applied Dose in Epidermis / Percent of Applied Dose in Receptor Solution: single application; for Percent of Applied Dose in Epidermis / Percent of Applied Dose in Receptor Solution / Mass in Epidermis / Mass in Surface wash / Mass, Total Recovery / Percent of Applied Dose in Surfacewash / Percent of Applied Dose, Total Recovery / Mass in Stratum Corneum / Percent of Applied Dose in Stratum Corneum: Mean ± SE; for Percent of Applied Dose in Receptor Solution: n = 3 donors; for Mass in Stratum Corneum / Percent of Applied Dose in Stratum Corneum: tape strip samples. As for the experimental part: The percutaneous absorption of Doxovir-L® (CTC-96) was evaluated by mixing CTC-96 at two concentrations (10 mg/g and 1 mg/g) to homogeneity with a Dermal ointment Formulation (petrolatum 10% by weight, camphor 0.92% by weight, menthol 0.5% by weight, methyl salicylate 0.26% by weight, eucalyptus oil 0.30% by weight) and was determined in vitro, using the human cadaver skin model using the finite dose technique and Franz Diffusion Cells (12;13). Placebo consisted of the drug formulation without drug. The amount of Dermal ointment that is applied at each treatment was determined is shown in the following table (TABLE 1): The percutaneous absorption of Doxovir-L® (CTC-96) was determined is shown in the following table (TABLE 2 & TABLE 3): […]

In the case of `Nc1nc2c(ncn2CCC(CO)CO)c(=O)[nH]1` [penciclovir], the “reduction in symptoms and time to healing” value with Herpes Labialis is 20-30%.
Turning to `CC(/C=C(/C)[O-])=NCCN=C(C)/C=C(/C)[O-].Cc1ncc[nH]1.Cc1ncc[nH]1.[Br-].[Co+3]` [CTC-96], the “% Inhibition Mean ± SD” value in the data set on HSV-1 (incubated at 4° C., 3 mo) is recorded as 91.5 ± 0.5%. The “% Inhibition Mean ± SD” value in the data set on HSV-1 (incubated at 4° C., 6 mo) was determined as 91.5 ± 3.4%. For the same compound, the “% Inhibition Mean ± SD” value in the data set with HSV-1 (incubated at 4° C., time 0) was determined as 91.8 ± 1.7%. In addition, in the data set on HSV-1 (incubated at 40° C., 3 mo), the “% Inhibition Mean ± SD” value turned out to be 90.1 ± 0.8%. Further, the “% Inhibition Mean ± SD” value with HSV-1 (incubated at 40° C., 6 mo) was found to be 92.1 ± 1.0%. In addition, in the data set with HSV-1 (incubated at 40° C., time 0), the “% Inhibition Mean ± SD” value was determined as 88.8 ± 2.7%. Also, in data set [1] (drug concentration 1 mg/g), the “Mass in Dermis” value was 0 μg/cm2, the “Mass in Receptor Solution” value is listed as 0 μg/cm2, the “Percent of Applied Dose in Dermis” value is 0% of Applied Dose and the “Percent of Applied Dose in Epidermis” value was 2.20 ± 1.09% of Applied Dose. In addition, in data set [1] (drug concentration 1 mg/g), the “Percent of Applied Dose in Receptor Solution” value is reported as 0% of Applied Dose; the “Mass in Epidermis” value is on record as 0.11 ± 0.05 μg/cm2; the “Mass in Surface wash” value turned out to be 3.17 ± 0.01 μg/cm2; the “Mass, Total Recovery” value was found to be 4.83 ± 0.07 μg/cm2. Further, in data set [1] (drug concentration 1 mg/g), the “Percent of Applied Dose in Surfacewash” value is on record as 7.41 ± 0.30% of Applied Dose; the “Percent of Applied Dose, Total Recovery” value was 9.67 ± 1.34% of Applied Dose; the “Mass in Stratum Corneum” value was 0.03 ± 0.00 μg/cm2; the “Percent of Applied Dose in Stratum Corneum” value is given as 0.06 ± 0.06% of Applied Dose. Further, in data set [1] (drug concentration 10 mg/g), the “Mass in Dermis” value came to 0 μg/cm2, the “Mass in Receptor Solution” value is 0 μg/cm2, the “Percent of Applied Dose in Dermis” value was 0% of Applied Dose and the “Percent of Applied Dose in Epidermis” value is listed as 3.63 ± 0.58% of Applied Dose. In data set [1] (drug concentration 10 mg/g), the “Percent of Applied Dose in Receptor Solution” value is listed as 0% of Applied Dose; the “Mass in Epidermis” value was determined as 1.81 ± 0.29 μg/cm2; the “Mass in Surface wash” value is given as 5.41 ± 1.90 μg/cm2; the “Mass, Total Recovery” value is reported as 7.86 ± 1.56 μg/cm2. In data set [1] (drug concentration 10 mg/g), the “Percent of Applied Dose in Surfacewash” value is listed as 10.81 ± 3.79% of Applied Dose; the “Percent of Applied Dose, Total Recovery” value was 15.72 ± 3.12% of Applied Dose; the “Mass in Stratum Corneum” value is 0.64 ± 0.33 μg/cm2; the “Percent of Applied Dose in Stratum Corneum” value is given as 1.29 ± 0.67% of Applied Dose.

The values are drawn from patent US8158615B2, “Anti-viral composition for the topical treatment of Herpes Labialis (cold sores) and method for use thereof” (priority 2006, dated 2012).
